# Read-outs that look alike come from different tables or passages of the source. No end group written: not given here.
# Columns and labels:
# [1] = test system: Escherichia coli [ATCC 25922]; experiment: microbe, parasite or virus in culture
# Experimental: (§1) The microorganisms (Staphylococcus aureus [ATCC 25923], Escherichia coli [ATCC 25922], and Propionibacterium acnes [ATCC 6919]) were obtained from Fuxiang Biotechnology (Shanghai, China). The five strains of K. pneumoniae clinical isolates (44, 48, 49, 50, and 51) were obtained from the Department of Critical Care Medicine, Shanghai Tenth People’s Hospital.
# (§2) The antimicrobial assay was performed by broth microdilution method, following the guidelines of the Clinical and Laboratory Standards Institute. Strains (mentioned in Section 4.3) were inoculated into Mueller-Hinton broth (MH), oscillated (37 °C, 220 rpm, 12 h) to the logarithmic growth stage, and then diluted to 10^6 CFU/mL. […] Then, the absorbance was measured at 600 nm in a microplate reader (Epoch Biotek, Winooski, VT, USA). […] The minimum inhibitory concentration (MIC) was defined as the lowest concentration of an antimicrobial where there was no visible growth. After measuring the MIC, a 50 μL sample was taken from the growth well without visible bacteria, serially diluted with phosphate-buffered saline (PBS, pH = 7.0), then spread on an MH agar solid medium and incubated at 37 °C for 12 h. The number of colonies was calculated, and the minimum drug concentrations that killed 99.9% of bacteria were considered the minimum bactericidal concentration (MBC) of the peptide.
# [2] = test system: K. pneumoniae 48 (clinical isolate); experiment: microbe, parasite or virus in culture
# Experimental: as §1, §2
# [3] = test system: K. pneumoniae 49 (clinical isolate); experiment: microbe, parasite or virus in culture
# Experimental: as §1, §2
# [4] = test system: K. pneumoniae 50 (clinical isolate); experiment: microbe, parasite or virus in culture
# Experimental: as §1, §2
# [5] = test system: K. pneumoniae 51 (clinical isolate); experiment: microbe, parasite or virus in culture
# Experimental: as §1, §2
# [6] = test system: Klebsiella pneumoniae 44 (clinical isolate); experiment: microbe, parasite or virus in culture
# Experimental: as §1, §2
# [7] = test system: Propionibacterium acnes [ATCC 6919]; experiment: microbe, parasite or virus in culture
# Experimental: as §1, §2
# [8] = test system: E. coli; assay type: cell-based, Escherichia coli; conditions: compound at MBC, 37 °C
# Experimental: Time-killing kinetics were determined with the method as previously described. […] The mixture was sampled 50 μL at 5, 15, 30, 60, 120, 240, and 480 min. Dilute the samples with sterile MH broth to a 10-fold gradient. Bacterial suspensions were plated at MH agar plates. After incubation at 37 °C for 12 h, the number of colonies was calculated.
# [9] = test system: Staphylococcus aureus [ATCC 25923]; conditions: broth microdilution, MH broth, 37 °C, 16–20 h
# Experimental: as §1, §2
# [10] = test system: S. aureus biofilm formation; experiment: Biofilm inhibition assay (crystal violet); assay type: cell-based, Staphylococcus aureus; conditions: 2 × MIC, 37 °C, 24 h, absorbance 600 nm, three independent experiments in quintuplicate
# Experimental: Sterile PBS was used to wash 3 times and methanol was used to fix it for 0.5 h. After drying, 1% crystal violet solution was used to stain for 0.5 h, washed 3 times with sterilized deionized water, and dissolved with 100 μL anhydrous ethanol. The absorbance was measured at 600 nm.
# [11] = test system: E. coli; conditions: mean of three independent experiments in triplicate
# Experimental: E. coli was inoculated into MH broth and oscillated (37 °C, 220 rpm, 12 h) to the logarithmic growth stage. Then diluted to 10^6 CFU/mL in MH broth with NaCl (0, 50, 100, 150, and 200 mM) or CaCl2 (1, 2, and 4 mM). […] The absorption value was detected at 600 nm.
# [12] = test system: E. coli; conditions: mean of three independent experiments in triplicate; remark: listed apart in the source
# Experimental: E.coli was inoculated into MH broth and oscillated (37 °C, 220 rpm, 12 h) to the logarithmic growth stage. Then diluted to 10^6 CFU/mL. […] Then, the absorbance was measured at 600 nm.
# [13] = test system: E. coli; conditions: mean of three independent experiments in triplicate; remark: listed apart in the source
# Experimental: E. coli was inoculated into MH broth and oscillated (37 °C, 220 rpm, 12 h) to the logarithmic growth stage. Then diluted to 10^6 CFU/mL. […] The MICs of these peptides were then measured.
# [14] = test system: HaCaT (human immortal keratinocyte cell line); experiment: Cytotoxicity assay (CCK-8); assay type: cell-based; conditions: 32 μg/mL, 24 h, mean of three independent experiments in triplicate
# Experimental: (§3) RAW264.7 (murine macrophage cell line), L929 (mouse fibroblast cell line), and HaCaT (human immortal keratinocyte cell line) were purchased from the Shanghai Institute of Biochemistry and Cell Science, Chinese Academy of Sciences.
# (§4) The cells were cultured using a DMEM medium containing 10%FBS and 1% penicillin-streptomycin solution. In 96-well plates, 100 µL of cells (2 × 10^4 cells/well) in DMEM were seeded and cultured overnight in an incubator at 5% CO2 and 37 °C. […] Subsequently, the medium was replaced by 100 μL DMEM containing 10% Cell Counting Kit-8 reagent, and incubated for 0.5 h at 37 °C. The absorbance was measured at […].
# [15] = test system: L929 (mouse fibroblast cell line); experiment: Cytotoxicity assay (CCK-8); assay type: cell-based; conditions: L929, 32 μg/mL, 24 h, mean of three independent experiments in triplicate
# Experimental: as §3, §4
# [16] = test system: human erythrocytes; conditions: human erythrocytes 2% suspension, 250 μg/mL, 37 °C, 0.5 h, absorbance 540 nm, 1% Triton X-100 = complete hemolysis; mean of three independent experiments in triplicate
# Experimental: Centrifuge at 25 °C at 1500 rpm for 5 min. Transfer 180 μL of supernatant to a 96-well plate and measure absorbance value at 540 nm. Normal saline was used as a negative control and 1% Triton X-100 solution as a positive control (complete hemolysis).
# [17] = test system: E. coli; conditions: human serum:peptide solution (10 mg/mL) 4:1 v:v, 37 °C, read-out MIC, mean of three independent experiments in triplicate
# Experimental: The same amount of solution was taken at each time point and gradient dilution was carried out with normal saline.
molecule,measurement,setting,value
"CC1(C)S[C@@H]2[C@H](NC(=O)[C@H](N)c3ccccc3)C(=O)N2[C@H]1C(=O)O [Ampicillin, reference compound]",MBC,"[1]; ATCC25922, 12 h",16 µg/mL
same,MIC,[2]; Klebsiella pneumoniae,> 128 µg/mL
same,MIC,[3]; Klebsiella pneumoniae,> 128 µg/mL
same,MIC,[4]; Klebsiella pneumoniae,> 128 µg/mL
same,MIC,[5]; Klebsiella pneumoniae,> 128 µg/mL
same,MIC,[6]; Klebsiella pneumoniae,> 128 µg/mL
same,MIC,"[7]; Cutibacterium acnes, ATCC6919",0.25 µg/mL
same,time at which bacteriostatic effect starts,[8],≥ 1 h
same,killing of E. coli within 8 h,[8]; 8 h,failed to completely kill
same,killing rate,[8]; after 4 h,about 47%
KRFKKFFKKLRKSVKKRVKKFFKKPKVIGVSIPF [Hydrostatin-AMP2],MIC,"[1]; broth microdilution (CLSI), MH broth, 10^6 CFU/mL, 37 °C, 16–20 h, absorbance 600 nm",16 µg/mL
same,MBC,"[1]; minimum concentration killing 99.9% of bacteria, plating on MH agar, 37 °C, 12 h",32 µg/mL
same,MIC,"[2]; K. pneumoniae 48, clinical isolate, broth microdilution, MH broth, 37 °C, 16–20 h",16 µg/mL
same,MIC,"[3]; K. pneumoniae 49, clinical isolate, broth microdilution, MH broth, 37 °C, 16–20 h",32 µg/mL
same,MIC,"[4]; K. pneumoniae 50, clinical isolate, broth microdilution, MH broth, 37 °C, 16–20 h",32 µg/mL
same,MIC,"[5]; K. pneumoniae 51, clinical isolate, broth microdilution, MH broth, 37 °C, 16–20 h",32 µg/mL
same,MIC,"[6]; Klebsiella pneumoniae 44, clinical isolate, broth microdilution, MH broth, 37 °C, 16–20 h",32 µg/mL
same,MIC,"[7]; Propionibacterium acnes, broth microdilution, MH broth, 37 °C, 16–20 h",32 µg/mL
same,MIC,[9],32 µg/mL
same,inhibition of biofilm formation,[10],71.02%
same,MIC,"[11]; Control (NaCl 0 mM, untreated peptide)",16 µg/mL
same,MIC,[11]; MH broth with CaCl2 1 mM,64 µg/mL
same,MIC,[11]; MH broth with CaCl2 2 mM,64 µg/mL
same,MIC,[11]; MH broth with CaCl2 4 mM,128 µg/mL
same,MIC,[11]; MH broth with NaCl 50 mM,32 µg/mL
same,MIC,[11]; MH broth with NaCl 100 mM,32 µg/mL
same,MIC,[11]; MH broth with NaCl 150 mM,32 µg/mL
same,MIC,[11]; MH broth with NaCl 200 mM,64 µg/mL
same,MIC after incubation at temperature,[12]; peptide incubated at 4 °C for 1 h,32 µg/mL
same,MIC after incubation at temperature,[12]; peptide incubated at 37 °C for 1 h,32 µg/mL
same,MIC after incubation at temperature,[12]; peptide incubated at 80 °C for 1 h,32 µg/mL
same,MIC after incubation at temperature,[12]; peptide incubated at 100 °C for 1 h,64 µg/mL
same,MIC after incubation at pH 2,[13]; peptide incubated in PBS pH 2 for 4 h at 37 °C,64 μg/mL
same,MIC after incubation at pH 12,[13]; peptide incubated in PBS pH 12 for 4 h at 37 °C,64 μg/mL
same,Cell Death,[14],5.89%
same,Cell Death,[15],8.08%
same,Hemolysis,[16],4.6%
same,MIC after incubation with human serum,[17]; 1 h,32 µg/mL
same,MIC after incubation with human serum,[17]; 2 h,32 µg/mL
same,MIC after incubation with human serum,[17]; 3 h,32 µg/mL
